The target in one assay is T1, AuroraA-TPX2 (Homo sapiens, UniProt O14965).
T1 construct: 20 μL of AuroraA-TPX2 KD GST; GST
T1 sequence (O14965 133-383 limits assumed): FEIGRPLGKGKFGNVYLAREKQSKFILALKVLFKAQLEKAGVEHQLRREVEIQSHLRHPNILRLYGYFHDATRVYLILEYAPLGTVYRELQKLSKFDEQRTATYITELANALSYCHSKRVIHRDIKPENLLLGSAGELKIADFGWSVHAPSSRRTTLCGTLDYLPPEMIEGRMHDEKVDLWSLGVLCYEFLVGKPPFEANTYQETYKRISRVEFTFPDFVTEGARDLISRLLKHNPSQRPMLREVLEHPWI
T1 sequence (Q9ULW0 1-747 partner): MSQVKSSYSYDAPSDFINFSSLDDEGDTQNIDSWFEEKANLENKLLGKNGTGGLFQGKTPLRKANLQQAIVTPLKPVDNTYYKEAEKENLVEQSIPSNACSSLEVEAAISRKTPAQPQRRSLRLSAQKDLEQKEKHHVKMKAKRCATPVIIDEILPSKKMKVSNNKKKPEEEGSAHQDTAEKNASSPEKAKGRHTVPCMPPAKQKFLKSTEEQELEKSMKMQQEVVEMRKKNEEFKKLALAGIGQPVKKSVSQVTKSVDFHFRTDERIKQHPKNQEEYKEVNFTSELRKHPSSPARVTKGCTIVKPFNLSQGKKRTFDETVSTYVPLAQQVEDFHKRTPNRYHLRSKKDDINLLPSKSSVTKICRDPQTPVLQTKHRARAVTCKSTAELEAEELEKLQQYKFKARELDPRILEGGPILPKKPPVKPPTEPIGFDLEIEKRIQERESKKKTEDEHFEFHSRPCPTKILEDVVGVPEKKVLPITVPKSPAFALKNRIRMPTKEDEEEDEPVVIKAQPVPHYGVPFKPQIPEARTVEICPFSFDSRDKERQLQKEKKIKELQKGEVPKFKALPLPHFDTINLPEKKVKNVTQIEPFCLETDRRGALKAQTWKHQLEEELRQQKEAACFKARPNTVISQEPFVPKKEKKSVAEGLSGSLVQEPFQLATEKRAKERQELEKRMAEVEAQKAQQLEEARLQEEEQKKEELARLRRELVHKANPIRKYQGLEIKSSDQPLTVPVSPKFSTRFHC
As to the kind of experiment: AuroraA-TPX2 Homogeneous Time Resolved Fluorescent (HTRF) kinase assay. Format: biochemical. Conditions: ATP about 1 μM, biotinylated PLK peptide, read-out: AurA_IC50—IP (Avg). The procedure:
AuroraA-TPX2-Homogeneous Time Resolved Fluorescent (HTRF) Kinase Assay:
The Aurora-A HTRF assay begins with Aurora-A in the presence of ATP phosphorylating the biotinylated peptide PLK. The reaction incubates for about 120 min. Detection reagents are added to quench the reaction. These agents stop the reaction by diluting out the enzyme and chelating the metals due to the presence of EDTA. After addition, the assay is incubated overnight to allow the detection reagents to equilibrate.
The AuroraA HTRF assay comprises 1 μL of compound in 100% DMSO, 20 μL of ATP and biotinylated PLK, and 20 μL of AuroraA-TPX2 KD GST for a final volume of about 41 μL. The final concentration of PLK is about 1 μM. The final concentration of ATP is about 1 μM (Km(app)=1 μM+/−0.1) and the final concentration of AuroraA is about 5 nM. Buffer conditions are as follows: 60 mM HEPES pH 7.5, 25 mM NaCl, 10 mM MgCl, 2 mM DTT, 0.05% BSA.
The assay is quenched and stopped with 160 μL of detection reagent. Detection reagents are as follows: Buffer made of 50 mM Tris, pH 7.5, 100 mM NaCl, 3 mM EDTA, 0.05% BSA, 0.1% Tween20. Added to this buffer prior to reading is Steptavidin allophycocyanin (SA-APC) at a final conc in the assay of 0.0005 mg/mL, and europilated anti-phosphoPLK Ab (Eu-anti-PLK) at a final conc of 0.02 nM.
The assay plate is read in either a Discovery or a RubyStar. The eu-anti-PLK is excited at 320 nm and emits at 615 nm to excite the SA-APC which in turn emits at 655 nm. The ratio of SA-APC at 655 nm (excited due to close proximity to the Eu-anti-PLK because of phosphorylation of the peptide) to free Eu-anti-PLK at 615 nm will give substrate phosphorylation.
(§1) Many of the Examples described herein were tested, and found to be active compounds. Table I includes related biological data, which may be interpreted using the activity gauge below: […]

Another assay concerns the target T2, AuroraB (Homo sapiens, UniProt Q96GD4).
T2 construct: 20 μL of AuroraB FL His; His
As to the kind of experiment: AuroraB Homogeneous Time Resolved Fluorescent (HTRF) kinase assay. Conditions: ATP 23 μM, biotinylated Histone H3 peptide, read-out: AurB_IC50—IP (Avg). Format: biochemical. As for the experimental part: AuroraB-Homogeneous Time Resolved Fluorescent (HTRF) Kinase Assay:
The AuroraB HTRF assay begins with AuroraB in the presence of ATP phosphorylating the biotinylated peptide Histone H3. The reaction incubates for about 90 min. the reaction is quenched by addition of detection reagents, which stop the reaction by diluting out the enzyme and chelating the metals due to the presence of EDTA. After addition, the assay is incubated for about 60 min to allow detection reagents to equilibrate.
The AuroraB HTRF assay comprises 1 μL of compound in 100% DMSO, 20 μL of ATP and biotinylated Histone H3, and 20 μL of AuroraB FL His for a final volume of 41 μL. The final concentration of Histone H3 is 0.1 μM. The final concentration of ATP is 23 μM (Km(app)=23 μM+/−2.6) and the final concentration of AuroraB is 400 pM. Buffer conditions are as follows: 50 mM HEPES pH 7.5, 5 mM NaCl, 0.5 mM MgCl, 0.5 mM MnCl, 2 mM DTT, 0.05% BSA.
The assay is quenched and stopped with 160 μL of detection reagent. Detection reagents are as follows: Buffer made of 50 mM Tris, pH 7.5, 100 mM NaCl, 3 mM EDTA, 0.05% BSA, 0.1% Tween20. Added to this buffer prior to reading is Steptavidin allophycocyanin (SA-APC) at a final conc in the assay of 0.001 mg/mL, and europilated anti-phosphoHistoneH3 Ab (Eu-anti-His H3) at a final conc of 0.064 nM.
The assay plate is read in either a Discovery or a RubyStar. The eu-anti-His H3 is excited at 320 nm and emits at 615 nm to excite the SA-APC which in turn emits at 655 nm. The ratio of SA-APC at 655 nm (excited due to close proximity to the Eu-anti-His H3 because of phosphorylation of the peptide) to free Eu-anti-His H3 at 615 nm will give substrate phosphorylation.
as §1
In general terms: Time-resolved FRET reads energy transfer from a long-lived donor to a nearby acceptor.

The subject of another assay is HeLa cells. Description: HeLa cell 24 hr ploidy assay. Format: cell-based. Conditions: Homo sapiens, 24 hrs treatment, DNA content (ploidy), read-out: 24 h_4N Ploidy EC50—IP (Avg). As for the experimental part:
HeLa Cell 24 hr Ploidy Assay Protocol
The purpose of this assay is to evaluate the ability of selected individual compounds to induce Deoxyribonucleic acid (DNA) content (ploidy) in cells thought failed cell division. Cell cycle analysis is a rapid and efficient way to evaluate the status of DNA content (ploidy) of a given cell. HeLa cells (1×10^4 HeLa cells/well) in 100 ul of media (MEM+10% FBS) were plated in 96-well plates (Packard View) and cultured for 24 hrs at 37° C. maintained in a 5% CO2 atmosphere. The following day, cells were treated for 24 hrs with inhibitor compounds (10 pt. Dose ranging from 0.0024-1.25 umol/L). The compounds were serially diluted in DMSO (0.25% final concentration). The cells were fixed (3.7% Formaldehyde and 1% glutaraldehyde) and permeabilized (1×PBS with 1% BSA and 0.2% Triton X-100) in preparation for nuclear staining. The well plates were stained for 45 minutes at RT in the dark using Hoechest 33342 nuclear stain at 0.5 ug·ml (Stock of 10 mg/ml, Invitrogen, CA, Cat # H3570). The nuclear stain was removed by aspiration and the cells were washed with wash buffer. A Cellomics Array Scan Vti plate reader was used to acquire the DNA ploidy data of the cells using Cell Cycle bioapplication. Numbers for each of “valid cell count/well”, “% of 4N cells” and “% of >4Ncells” were calculated with the assistance of an Activity Base 5.1ca software and dose curves were generated using an XLFit software. With XLFit, final EC50 IP and EC50 transit values, as well as the Max and Min, were calculated for each curve. Many of the Examples described herein were tested, and fund to be active compounds. Table I includes related biological data in the 24 h cell-ploidy content assay, which may be interpreted using the activity gauge below: […]

T2 sequence (Q96GD4 whole entry): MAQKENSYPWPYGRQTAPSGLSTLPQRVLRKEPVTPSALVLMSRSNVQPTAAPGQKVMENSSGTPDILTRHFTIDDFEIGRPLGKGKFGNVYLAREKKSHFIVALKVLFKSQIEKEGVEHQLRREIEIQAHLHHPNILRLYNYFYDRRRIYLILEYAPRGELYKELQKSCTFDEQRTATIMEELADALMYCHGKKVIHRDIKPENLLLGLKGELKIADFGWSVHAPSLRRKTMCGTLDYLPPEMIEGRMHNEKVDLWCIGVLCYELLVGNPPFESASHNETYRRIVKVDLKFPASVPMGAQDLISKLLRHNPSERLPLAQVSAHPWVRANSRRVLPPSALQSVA

As for `Oc1cc2nccc(Sc3ccc(Nc4nnc(-c5ccc(Cl)cc5)c5ccccc45)cc3)n2n1` [Example 5, 7-(4-(4-(4-Chlorophenyl)phthalazin-1-ylamino)phenylthio)pyrazolo[1,5-a]pyrimidin-2-ol], the IC50 on AuroraA-TPX2 and on AuroraB was under 100 nM throughout. Also, the EC50 in the assay on HeLa cells fell in the range of 100 to 500 nM.
Take `Clc1ccc(-c2nnc(Nc3ccc(Sc4ncnn5cccc45)cc3)c3ccccc23)cc1` [Example 25, 4-(4-chlorophenyl)-N-(4-(pyrrolo[2,1-f][1,2,4]triazin-4-ylthio)phenyl)-1-phthalazinamine]: the IC50 was over 2500 nM at AuroraA-TPX2 and under 100 nM on AuroraB. Also, in the assay on HeLa cells, the EC50 fell in the range of 100 to 500 nM.
Taken in the same sequence, the figures for `Clc1ccn2ncnc(Sc3ccc(Nc4nnc(-c5ccccc5)c5ccccc45)cc3)c12` [Example 29, N-(4-((5-chloropyrrolo[2,1-f][1,2,4]triazin-4-yl)thio)phenyl)-4-phenyl-1-phthalazinamine] were over 2500 nM, under 100 nM and 100 to 500 nM.
`Cc1csc(-c2nnc(Nc3ccc(Sc4ncnn5cccc45)cc3)c3ccccc23)c1` [Example 26, 4-(4-methyl-2-thienyl)-N-(4-(pyrrolo[2,1-f][1,2,4]triazin-4-ylthio)phenyl)-1-phthalazinamine]: the IC50 at AuroraA-TPX2 is 500 to 2500 nM; at AuroraB it was under 100 nM. Besides, in the assay on HeLa cells, the EC50 fell in the range of 100 to 500 nM.
In the same order, the values of `Clc1ccc(-c2nnc(Nc3ccc(Sc4ccnc5cc(C6CC6)nn45)cc3)c3ccccc23)cc1` [Example 1, 4-(4-Chlorophenyl)-N-(4-(2-cyclopropylpyrazolo[1,5-a]pyrimidin-7-ylthio)phenyl)phthalazin-1-amine] are over 2500 nM, under 100 nM and under 100 nM.

One may read the EC50 as the concentration that produces a half-maximal response.

Values taken from patent publication US8404694B2, “Aurora kinase modulators and method of use” (Amgen Inc., priority 2008, dated 2013).
